# Measured values reported in patent US11554188B2, “Anti-viral dry cleaning process” ([…], LLC, priority 2020, dated 2023).
# Values joined by “and” are separate entries in the source; they are usually repeats but may differ in a detail not shown here. Equal entries are not always repeated. Where two headings read alike, the source gives them in different places.
# Experiments:
# Type in all cases: cell-based
# [1] = tested on: SARS-CoV-2 strain USA-WA1/2020; conditions: for Averaged Test Sample Percent Log Reduction to Averaged Virus Controls: averaged over 15, 30, 45 min
# [2] = tested on: SARS-CoV-2 strain USA-WA1/2020; conditions: Silicone wash, and spin cycle, time 45 min
# [3] = tested on: SARS-CoV-2 strain USA-WA1/2020; assay: Drying cycle and washing cycle combined test results (complete dry cleaning process); conditions: for Averaged Test Sample Percent Log Reduction of complete dry cleaning process: wash/spin results combined with heat, liquid and vapor results
# Text: Data shown in Table 2 represents the individual dry cleaning process percent log reduction to the control samples for each coupon set at each process time, and averaged percent reduction of each process on viral deactivation. The silicone wash and spin rinse tests were combined with the heat, silicone liquid, and vapor exposure process results to define the overall percent viral reduction of the complete dry cleaning process. A plot showing the percent log reduction efficacy of each of the simulated dry cleaning processes and the total process in deactivating SARS-CoV-2 infected wool blend fabric material is shown in FIG. 2.
# This testing was conducted to provide an accurate simulation of patented dry cleaning process in a laboratory environment.
# It should be noted, that in one simulation of the drying cycle, the combination of heat, vapor, and liquid condition produced a percent log reduction to virus control of 98.00%.
# [4] = Heat + Liquid + Vapor, 70° C., 15 min
# [5] = Heat + Liquid + Vapor, 70° C., 30 min
# [6] = Heat + Liquid + Vapor, 70° C., 45 min
# [7] = Heat + Silicone Liquid, 70° C., 15 min
# [8] = Heat + Silicone Liquid, 70° C., 30 min
# [9] = Heat + Silicone Liquid, 70° C., 45 min
# [10] = Heat + Silicone Vapor, 70° C., 15 min
# [11] = Heat + Silicone Vapor, 70° C., 30 min
# [12] = Heat + Silicone Vapor, 70° C., 45 min
# [13] = samples G5-15 (condition cell blank; heat + liquid + vapor per Table 2), 15 min
# [14] = samples G5-30 (condition cell blank; heat + liquid + vapor per Table 2), 30 min
# [15] = samples G5-45 (condition cell blank; heat + liquid + vapor per Table 2), 45 min
# [16] = Complete cycle - silicone wash, spin, heat and vapor, time 45 min
# [17] = Silicone wash, and spin cycle, time 45 min
compound,measurement,setting,value
"C[Si]1(C)O[Si](C)(C)O[Si](C)(C)O[Si](C)(C)O[Si](C)(C)O1 [D5, decamethylcyclopentasiloxane]",TCID50 (individual sample),"[1]; D5 Liquid Only Control, 45 min",31.62
same,Avg TCID50,"[1]; Heat & D5 Liquid, 15 min",789.8
same,TCID50 (individual sample),"[1]; Heat & D5 Liquid, 15 min",316.2 and 794.3 and 1258.9254
same,Avg TCID50,"[1]; Heat & D5 Liquid, 30 min",1125
same,TCID50 (individual sample),"[1]; Heat & D5 Liquid, 30 min",879.9254 and 501.2 and 1995.2623
same,Avg TCID50,"[1]; Heat & D5 Liquid, 45 min",1590
same,TCID50 (individual sample),"[1]; Heat & D5 Liquid, 45 min",1258.9254 and 1415.1212 and 2096.18
same,Avg TCID50,"[1]; Heat & D5 Vapor, 15 min",3389.8041
same,TCID50 (individual sample),"[1]; Heat & D5 Vapor, 15 min",1995.2623 and 5011.8723 and 3162.2777
same,Avg TCID50,"[1]; Heat & D5 Vapor, 30 min",2510
same,TCID50 (individual sample),"[1]; Heat & D5 Vapor, 30 min",5011.8723 and 1258.9254 (2×)
same,Avg TCID50,"[1]; Heat & D5 Vapor, 45 min",2983
same,TCID50 (individual sample),"[1]; Heat & D5 Vapor, 45 min",3162.2777 and 3690.622 and 2096.18
same,Average of Test Replicates Log10 TCID50,[1]; [4],1.98
same,Average of Test Replicates TCID50,[1]; [4],94.92
same,Log10 Reduction to virus control,[1]; [4],1.70
same,Percent Log Reduction to Virus Control,[1]; [4],98.00%
same,Percent Log Reduction to Virus Control,"[1]; Heat + Liquid + Vapor, 70° C., 15 min, listed as Silicone",98.00%
same,Average of Test Replicates Log10 TCID50,[1]; [5],2.14
same,Average of Test Replicates TCID50,[1]; [5],138.31
same,Log10 Reduction to virus control,[1]; [5],1.54
same,Percent Log Reduction to Virus Control,[1]; [5],97.09%
same,Average of Test Replicates Log10 TCID50,[1]; [6],2.37
same,Average of Test Replicates TCID50,[1]; [6],232.01
same,Log10 Reduction to virus control,[1]; [6],1.31
same,Percent Log Reduction to Virus Control,[1]; [6],95.12%
same,Averaged Test Sample Percent Log Reduction to Averaged Virus Controls,"[1]; Heat + Liquid + Vapor, 70° C.",approximately 96.7%
same,Averaged Test Sample Percent Log Reduction to Averaged Virus Controls,"[1]; Heat + Liquid + Vapor, 70° C., listed as Silicone",96.74%
same,Average of Test Replicates Log10 TCID50,[1]; [7],2.90
same,Average of Test Replicates TCID50,[1]; [7],789.83
same,Log10 Reduction to virus control,[1]; [7],0.78
same,Percent Log Reduction to Virus Control,[1]; [7],83.39%
same,Average of Test Replicates Log10 TCID50,[1]; [8],3.05
same,Average of Test Replicates TCID50,[1]; [8],1125.46
same,Log10 Reduction to virus control,[1]; [8],0.63
same,Percent Log Reduction to Virus Control,[1]; [8],76.34%
same,Average of Test Replicates Log10 TCID50,[1]; [9],3.20
same,Average of Test Replicates TCID50,[1]; [9],1590.08
same,Log10 Reduction to virus control,[1]; [9],0.48
same,Percent Log Reduction to Virus Control,[1]; [9],66.57%
same,Averaged Test Sample Percent Log Reduction to Averaged Virus Controls,"[1]; Heat + Silicone Liquid, 70° C.",approximately 75.4%
same,Averaged Test Sample Percent Log Reduction to Averaged Virus Controls,"[1]; Heat + Silicone Liquid, 70° C., listed as Silicone",75.43%
same,Average of Test Replicates Log10 TCID50,[1]; [10],3.53
same,Average of Test Replicates TCID50,[1]; [10],3389.80
same,Log10 Reduction to virus control,[1]; [10],0.15
same,Percent Log Reduction to Virus Control,[1]; [10],28.72%
same,Average of Test Replicates Log10 TCID50,[1]; [11],3.40
same,Average of Test Replicates TCID50,[1]; [11],2509.91
same,Log10 Reduction to virus control,[1]; [11],0.28
same,Percent Log Reduction to Virus Control,[1]; [11],47.23%
same,Average of Test Replicates Log10 TCID50,[1]; [12],3.47
same,Average of Test Replicates TCID50,[1]; [12],2983.03
same,Log10 Reduction to virus control,[1]; [12],0.20
same,Percent Log Reduction to Virus Control,[1]; [12],37.28%
same,Averaged Test Sample Percent Log Reduction to Averaged Virus Controls,"[1]; Heat + Silicone Vapor, 70° C.",37.74%
same,Average of Test Replicates Log10 TCID50,"[1]; Silicone Liquid Control, room temperature (23° C.), 45 min",1.50
same,Average of Test Replicates TCID50,"[1]; Silicone Liquid Control, room temperature (23° C.), 45 min, wool blend coupons",31.62
same,Avg TCID50,[1]; [13],91.92
same,TCID50 (individual sample),[1]; [13],79.43 (2×) and 125.9
same,Avg TCID50,[1]; [14],138.3
same,TCID50 (individual sample),[1]; [14],209.618 and 79.43 and 125.9
same,Avg TCID50,[1]; [15],232.1
same,TCID50 (individual sample),[1]; [15],125.9 (2×) and 444.2
same,Average of Test Replicates TCID50,"[2]; 89 mL, 35 RPM 16 min, spin 500 rpm 4 min",35138.40
same,Average of Test Replicates Log10 TCID50,[2],4.54
same,Averaged Test Sample Percent Log Reduction of complete dry cleaning process,[2],56.18%
same,Log10 Reduction to virus control,[2],0.36
same,Percent Log Reduction to Virus Control,[2],56.18%
same,Percent Log Reduction to Virus Control,[2]; listed as Silicone,56.18%
same,Average of Test Replicates Log10 TCID50,[3]; [16],4.54
same,Average of Test Replicates TCID50,[3]; [16],35138.40
same,Averaged Test Sample Percent Log Reduction of complete dry cleaning process,"[3]; Complete cycle - silicone wash, spin, heat and vapor",approximately 98.6%
same,Averaged Test Sample Percent Log Reduction of complete dry cleaning process,"[3]; Complete cycle - silicone wash, spin, heat and vapor, listed as Silicone",98.57%
same,Log10 Reduction to virus control,[3]; [17],0.36
same,Percent Log Reduction to Virus Control,[3]; [17],56.18%
same,optimized calculated log reduction to the average virus controls,"[3]; serial combination of 56.18% wash cycle reduction and 98.00% drying cycle reduction (heat, vapor, liquid)",99.12%
